# Measurements taken from patent US4673678A, “Water soluble derivatives of fredericamycin A” (The United States of America as represented by the …, priority 1986, dated 1987).
# Counter-ions that a name gives are not always drawn. Like-named read-outs stand apart in the source and are kept apart here.
# Experiments:
# [1] = tested on: P388 ascites murine leukemia; experiment: in vitro cytotoxicity, Microculture Tetrazolium Assay (MTA), P388; format: cell-based; conditions: P388, 5 days culture, FIG. 5
# Excerpt: The assay used for determining in vitro cytotoxic activity of alkali metal salt of FMA is known as "Microculture Tetrazolium Assay" (MTA) developed by the in vitro Cancer Pharmacology R & D Laboratory at NCI-FCRF. The method utilized is a modification of Procedure by T. Mosmann et al., (J. Immunol. Meth. 65:55, 1983 and 70:257, 1984) described by M. C. Alley et al (Proc. AACR. 27:389, 1986). The testing of alkali metal salt of FMA is done using P388 acites murine leukemia as the test system at a inoculation density of about 1000 cells per well and culture duration of 5 days, with various concentration levels of alkali metal salt of FMA vs fredericamycin A. The concentration range could be from 0.1 μg to 10 μg per ml. The results are recorded as percent of control O.D. for each sample dilution.
# solubility [2] = format: physicochemical
# pH of aqueous solution = format: physicochemical
# P388 Lymph. Leukemia = experiment: in vivo antitumor activity against P388 leukemia; parameters: species or system CD2F1 mice; conditions: for % T/C / % T/C: toxicity: i.p.
# Procedure: The antitumor activity is determined by contracted accessary testing services according to the National Cancer Institute (NCI) guidelines for natural products (Geran et al. protocols for Screening Chemical Agents and Natural Products Against Animal Tumors and other Biological Systems. Cancer Chemother. Rep. part 3, 3:7-61, 1972; Schepartz: Antitumor Screening Procedures of the National Cancer Institute. Japan J. Antibiotics 30 (Supl): 35-40, 1977.)
# Alkali metal salt of FMA is tested in vivo against P338 leukemia. The test is carried out using male CD2F1 mice (wt.=18 g±3 g) in one experiment and female mice (wt, 17 g±3.0 gm) in another experiment. […]
# *T/C is the ratio expressed in percent of the median survival time of the
# treated group divided by the median survival time of the control group.
# NCI criteria of positive (moderate) activity in P388 Leukemia is indicate
# by a T/C value of 120%. A T/C value of ≥ 175% is indicative of
# **DMSO = Dimethylsulfoxide; i.p = intraperitoneal route of injection.
# Potassium salt of fredericamycin A was dissolved in water only.
# [3] = tested on: gram positive bacteria (Bacillus subtilis); experiment: antimicrobial activity, disc method, bacteria; format: cell-based; conditions: concentration 0.025 to 5 μg/ml
# Procedure: (§1) Protocol for determining antimicrobial activity against Bacillus subtilis and Penicillium notatum
# (§2) These were performed by Disc method, using standard assay procedures and the respective microorganism in each case. 15 μl of each sample in DMSO-H H2 O (1:1) is pipetted on to separate 0.25" absorbent paper disc and the assay is performed following routine techniques well known in the art. Zone sizes are read after incubation overnight (Bacillus subtilis) and after 4 days of incubation (Penicillium notatum) at various concentrations.
# stability = format: physicochemical
# [4] = tested on: fungi (Penicillium notatum); experiment: antimicrobial activity, disc method, fungi; format: cell-based; conditions: concentration 0.025 to 5 μg/ml
# Procedure: as §1, §2
# solubility [5] = format: physicochemical; conditions: for solubility: water
# Procedure: The potassium salt of fredericamycin A (NSC #601617) is soluble in water with hand shaking for 1 minute, followed by vortexing for 3 minutes. The solubility is about 1.0 mg/ml and gives a transparent blue solution, pH 8.65 with no residue upon membrane filtration (0.22μ, HA, Millipore Products).
# Fredericamycin A (15 mg, 0.0278 mmols) is treated with NaOH solution, 1:3 mols (7.65 mls; 0.0109N, degased previously and cooled to 0° C.) in pyridine solution at 0° C. (2.5 ml, degased) under N2 atmosphere. Reaction is carried out by stirring magnetically for 60 minutes under N2 atmosphere. (40 minutes at 0° C. and 20 minutes at 15° C.). The progress of reaction is followed by TLC, HPLC (of hydrolysed product of the Rx mixture) and UV. The resultant blue-green clear reaction mixture is frozen (-70° C.) and lyophilized (48 hrs) until a solid is obtained. […] It is soluble in water (0.5 mg/ml) with hand shake and sonication (15 minutes). […] TLC and HPLC (after hydrolysis) show single spot and single peak respectively showing that the product is pure.
# The first indication of the salt formation is observed by solubility studies in water.
# L1210 leukemia = conditions: in vivo; cited from earlier work
# mouse leukemia L1210 = conditions: in vitro, compared with actinomycin D and adriamycin; cited from earlier work
# MX-1 breast xenograft = conditions: in vivo; cited from earlier work
# B16 melanoma = conditions: in vivo; cited from earlier work
# LX-1 lung xenograft = conditions: in vivo; cited from earlier work
# CD8F mouse mammary tumor = conditions: in vivo; cited from earlier work
# Gram-positive bacteria = conditions: cited from earlier work
# mouse leukemia P388 = conditions: cited from earlier work
# C38 colon tumor = conditions: in vivo; cited from earlier work
# Gram-negative bacteria = conditions: cited from earlier work
# Lewis lung carcinoma = conditions: in vivo; cited from earlier work
# P388 leukemic cells = conditions: in vivo; cited from earlier work
# [6] = general; precluded further toxicological and pharmacological studies; cited from earlier work
# fungi = conditions: cited from earlier work
# hygroscopicity = format: physicochemical
compound,measurement,setting,value
"C/C=C/C=C/c1cc2cc3c(c(O)c2c(=O)[nH]1)C1(CC3)C(=O)c2c(O)c3c(c(O)c2C1=O)C(=O)C(OC)=CC3=O (stereo not drawn) [KFMA, potassium salt of fredericamycin A]",in vitro cytotoxic activity as compared to that of FMA,[1],equal or better
same,solubility in chloroform-methanol-acetic acid (87:3:3) and methanol,solubility [2],Soluble
same,"solubility in dimethylacetamide, dimethylformamide, pyridine",solubility [2],Readily Soluble
same,"solubility in ethylacetate, acetonitrile and chloroform",solubility [2],Sparingly soluble
same,"solubility in hexanes, ether, acetone, benzene and carbon tetra chloride",solubility [2],Insoluble
same,solubility in dimethyl sulfoxide,solubility [2]; Readily Soluble,8 mg/1.5 ml
same,solubility,"solubility [2]; dmso-saline 5:95, organic solvent or mixture, read-out: solubility in dimethylsulfoxide-saline (5:95)",1000 µg/mL
same,solubility,"solubility [2]; dmso-saline 10:90, organic solvent or mixture, solution is transparent blue, read-out: solubility in dimethylsulfoxide-saline (10:90)",1000 µg/mL
same,solubility,"solubility [2]; dmso-water 1:1, organic solvent or mixture, Readily Soluble, read-out: solubility in dimethylsulfoxide-water (1:1)",3000 µg/mL
same,solubility,"solubility [2]; dmso-water 5:95, organic solvent or mixture, read-out: solubility in dimethylsulfoxide-water (5:95)",1500 µg/mL
same,solubility,"solubility [2]; water, hand shaking 1 minute, vortexing 3 minutes, read-out: solubility in water",~1000 µg/mL
same,pH (H2O),pH of aqueous solution; Table 1,8.9 ± 0.2
same,pH of aqueous solution,pH of aqueous solution; about 1.0 mg/ml in water,8.65
same,T/C value,P388 Lymph. Leukemia; 1 mg/kg level,178%
same,% T/C,"P388 Lymph. Leukemia; Expt #1, 0.125 mg/kg, water",119%
same,% T/C,"P388 Lymph. Leukemia; Expt #1, 0.25 mg/kg, water",119%
same,% T/C,"P388 Lymph. Leukemia; Expt #1, 0.50 mg/kg, water",153%
same,% T/C,"P388 Lymph. Leukemia; Expt #1, 1.00 mg/kg, water",178%
same,% T/C: toxicity,"P388 Lymph. Leukemia; Expt #1, 2.00 mg/kg, water",Toxic
same,% T/C,"P388 Lymph. Leukemia; Expt #1, .063 mg/kg, water",110%
same,% T/C,"P388 Lymph. Leukemia; Expt #2, 0.125 mg/kg, water",120%
same,% T/C,"P388 Lymph. Leukemia; Expt #2, 0.25 mg/kg, water",132%
same,% T/C,"P388 Lymph. Leukemia; Expt #2, 0.50 mg/kg, water",160%
same,% T/C,"P388 Lymph. Leukemia; Expt #2, 1.00 mg/kg, water",175%
same,% T/C,"P388 Lymph. Leukemia; Expt #2, .063 mg/kg, water",112%
same,"activity against P388 leukemia, in words",P388 Lymph. Leukemia; all experiments performed,significant activity
same,differences between male and female mice,P388 Lymph. Leukemia; male vs female mice,no differences observed
same,zone size,[3],9.5 mm
same,stability of DMSO solution (anhydrous),stability; 0° C./dark,several days
same,stability of anhydrous salt,"stability; anhydrous, room temp.",stable
same,"stability of anhydrous salt, duration in words","stability; anhydrous, room temperature",stable for extended period of time
same,temperature safely heated to with no decomposition,"stability; high vacuum, 4 hrs",up to 60 °C
same,hydrolysis to fredericamycin A,"stability; in presence of moisture, acid",Easily hydrolysable
same,stability of DMSO solution (anhydrous),"stability; room temp, 4 hrs",fairly stable
same,storage stability,"stability; sealed under nitrogen, anhydrous, amber container, 0° C. over silica gel",stable for several months
same,stability of aqueous solution,"stability; water, about 1.0 mg/ml, room temperature",stable for almost an hour
same,zone size,[4],9.5 mm
same,solubility,solubility [5]; Table 1,1000 µg/mL
same,solubility,solubility [5]; solubility studies in water,~1000 µg/mL
C/C=C/C=C/c1cc2cc3c(c(O)c2c(=O)[nH]1)C1(CC3)C(=O)c2c(O)c3c(c(O)c2C1=O)C(=O)C(OC)=CC3=O (stereo not drawn) [fredericamycin A],activity against L1210 leukemia,L1210 leukemia,ineffective
same,ED50 against L1210,mouse leukemia L1210,compared closely to the reported values for actinomycin D and adriamycin
same,activity against MX-1 breast xenograft,MX-1 breast xenograft,ineffective
same,activity against B16 melanoma,B16 melanoma,marginal activity
same,activity against LX-1 lung xenograft,LX-1 lung xenograft,ineffective
same,reducing the median tumor weight,CD8F mouse mammary tumor,effective
same,activity against Gram-positive bacteria,Gram-positive bacteria,good activity
same,cytotoxicity,"mouse leukemia P388; in general, cells not specified",very cytotoxic
same,ED50 against P388,"mouse leukemia P388; in vitro, compared with actinomycin D and adriamycin",compared closely to the reported values for actinomycin D and adriamycin
same,% T/C,"P388 Lymph. Leukemia; 0.06 mg/kg, DMSO",122%
same,% T/C,"P388 Lymph. Leukemia; 0.12 mg/kg, DMSO",146%
same,% T/C,"P388 Lymph. Leukemia; 0.25 mg/kg, DMSO",134%
same,% T/C,"P388 Lymph. Leukemia; 0.50 mg/kg, DMSO",200%
same,% T/C,"P388 Lymph. Leukemia; 1.00 mg/kg, DMSO",160%
same,% T/C: toxicity,"P388 Lymph. Leukemia; >1.00 mg/kg, DMSO",Toxic
same,activity against C38 colon tumor,C38 colon tumor,ineffective
same,activity against Gram-negative bacteria,Gram-negative bacteria,no activity
same,activity against Lewis lung carcinoma,Lewis lung carcinoma,ineffective
same,extending the life span of mice inoculated with P388,P388 leukemic cells,effective
same,solubility,[6],poor solubility
same,"solubility in water, in words",solubility [5],almost insoluble
same,"solubility in water, in words",solubility [5]; listed as FMA,virtually insoluble
same,activity against fungi,fungi,good activity
"C/C=C/C=C/c1cc2cc3c(c(O)c2c(=O)[nH]1)C1(CC3)C(=O)c2c(O)c3c(c(O)c2C1=O)C(=O)C(OC)=CC3=O (stereo not drawn) [Na-FMA, sodium salt of fredericamycin A]",pH (water),pH of aqueous solution; 0.5 mg/ml in water,9.2±0.5
same,hygroscopicity,hygroscopicity,highly hygroscopic
same,stability of aqueous solution on longer standing,"stability; water, room temperature",hydrolyzing back to fredericamycin A
same,solubility,solubility [5]; hand shake and sonication (15 minutes),500 µg/mL
